Test results from US12227500B2, “Substituted pyrrolo[2,3-b]pyridines for suppressing toxic endoplasmic reticulum stress” (THE TRUSTEES OF COLUMBIA UNIVERSITY IN THE CITY OF NEW YORK, priority 2018, dated 2025).

Assays:
Assay in all cases: Radiolabeled ATP kinase assay, panel of 60 kinases (Table S5)
Assay type in all cases: biochemical
[1] = molecular target: T1, panel of 60 human kinases (Homo sapiens, UniProt O94806); conditions: PKCnu/PRKD3; 0.1 μM; 10 μM ATP; read-out: % Enzyme Activity (relative to DSMO controls)
T1 construct: purchased Reaction Biology Corp
T1 sequence (O94806 1-890): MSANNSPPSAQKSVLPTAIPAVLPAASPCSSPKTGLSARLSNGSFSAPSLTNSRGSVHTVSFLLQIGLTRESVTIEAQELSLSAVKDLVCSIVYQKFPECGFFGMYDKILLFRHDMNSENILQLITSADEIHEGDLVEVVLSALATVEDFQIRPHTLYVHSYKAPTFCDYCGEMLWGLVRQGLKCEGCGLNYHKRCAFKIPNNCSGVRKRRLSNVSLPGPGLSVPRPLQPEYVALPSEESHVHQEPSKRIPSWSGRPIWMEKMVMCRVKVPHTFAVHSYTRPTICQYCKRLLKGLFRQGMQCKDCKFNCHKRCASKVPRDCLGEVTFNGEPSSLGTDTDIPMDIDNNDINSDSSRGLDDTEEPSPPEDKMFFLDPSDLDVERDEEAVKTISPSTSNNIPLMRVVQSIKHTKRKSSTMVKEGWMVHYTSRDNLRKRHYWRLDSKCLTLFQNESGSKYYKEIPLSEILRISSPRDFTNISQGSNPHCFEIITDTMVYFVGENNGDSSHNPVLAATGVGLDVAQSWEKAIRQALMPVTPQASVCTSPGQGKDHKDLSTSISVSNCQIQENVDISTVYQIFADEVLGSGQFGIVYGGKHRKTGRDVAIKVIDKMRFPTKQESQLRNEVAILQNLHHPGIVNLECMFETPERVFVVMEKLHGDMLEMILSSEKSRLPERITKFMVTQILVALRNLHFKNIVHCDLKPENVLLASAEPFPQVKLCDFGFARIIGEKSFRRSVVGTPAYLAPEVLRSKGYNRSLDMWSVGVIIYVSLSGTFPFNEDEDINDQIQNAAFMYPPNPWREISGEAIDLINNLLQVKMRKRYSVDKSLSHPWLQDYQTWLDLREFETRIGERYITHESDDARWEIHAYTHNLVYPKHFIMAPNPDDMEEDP
Experimental: (§1) To better understand the biologically relevant targets of compound 1 and its analogs, a second round of cell-free kinase assays was performed. In this expanded assay, we selected ten analogs ranging from moderately to very strongly protective in the CPA assay. These analogs were evaluated for their ability to inhibit a selection of 60 kinases at 0.1 μM and 0.5 μM. […] RNAseq data were used to confirm the expression of each kinase in ES MNs (see Example 12).
(§2) RNAseq data were used to confirm the expression of each kinase in ES motor neurons (see Example 12).

[2] = molecular target: T2, panel of 60 human kinases (Homo sapiens, UniProt O15264); conditions: P38d/MAPK13; 0.1 μM; 10 μM ATP; read-out: % Enzyme Activity (relative to DSMO controls)
T2 construct: purchased Reaction Biology Corp
T2 sequence (O15264 1-365): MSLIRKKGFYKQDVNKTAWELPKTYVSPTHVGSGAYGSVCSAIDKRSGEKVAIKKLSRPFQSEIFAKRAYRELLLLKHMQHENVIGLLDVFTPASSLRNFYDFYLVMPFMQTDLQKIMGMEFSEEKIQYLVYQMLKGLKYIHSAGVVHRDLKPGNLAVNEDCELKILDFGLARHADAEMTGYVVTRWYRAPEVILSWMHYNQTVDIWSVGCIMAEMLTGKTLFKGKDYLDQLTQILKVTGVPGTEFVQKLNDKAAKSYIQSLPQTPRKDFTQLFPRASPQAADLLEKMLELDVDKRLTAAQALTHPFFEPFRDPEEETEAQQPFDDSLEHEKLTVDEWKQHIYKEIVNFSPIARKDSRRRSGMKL
Experimental: as §1, §2

[3] = molecular target: T3, panel of 60 human kinases (Homo sapiens, UniProt P11362); conditions: FGFR1; 0.1 μM; 10 μM ATP; read-out: % Enzyme Activity (relative to DSMO controls)
T3 construct: purchased Reaction Biology Corp
Experimental: as §1, §2

[4] = molecular target: T4, panel of 60 human kinases (Homo sapiens, UniProt O94921); conditions: CDK14/cyclin Y (PFTK1); 0.1 μM; 10 μM ATP; read-out: % Enzyme Activity (relative to DSMO controls)
T4 construct: purchased Reaction Biology Corp
Experimental: as §1, §2

[5] = molecular target: T5, panel of 60 human kinases (Homo sapiens, UniProt Q00526); conditions: CDK3/cyclin E; 0.1 μM; 10 μM ATP; read-out: % Enzyme Activity (relative to DSMO controls)
T5 construct: purchased Reaction Biology Corp
Experimental: as §1, §2

[6] = molecular target: T6, panel of 60 human kinases (Homo sapiens, UniProt P53779); conditions: JNK3; 0.1 μM; 10 μM ATP; read-out: % Enzyme Activity (relative to DSMO controls)
T6 construct: purchased Reaction Biology Corp
Experimental: as §1, §2

[7] = molecular target: T7, panel of 60 human kinases (Homo sapiens, UniProt Q15759); conditions: P38b/MAPK11; 0.1 μM; 10 μM ATP; read-out: % Enzyme Activity (relative to DSMO controls)
T7 construct: purchased Reaction Biology Corp
Experimental: as §1, §2

[8] = molecular target: T8, panel of 60 human kinases (Homo sapiens, UniProt Q16539); conditions: P38a/MAPK14; 0.1 μM; 10 μM ATP; read-out: % Enzyme Activity (relative to DSMO controls)
T8 construct: purchased Reaction Biology Corp
Experimental: as §1, §2

[9] = molecular target: T9, panel of 60 human kinases (Homo sapiens, UniProt Q16288); conditions: TRKC; 0.1 μM; 10 μM ATP; read-out: % Enzyme Activity (relative to DSMO controls)
T9 construct: purchased Reaction Biology Corp
Experimental: as §1, §2

[10] = molecular target: T10, panel of 60 human kinases (Homo sapiens, UniProt P53778); conditions: P38g; 0.1 μM; 10 μM ATP; read-out: % Enzyme Activity (relative to DSMO controls)
T10 construct: purchased Reaction Biology Corp
T10 sequence (P53778 1-367): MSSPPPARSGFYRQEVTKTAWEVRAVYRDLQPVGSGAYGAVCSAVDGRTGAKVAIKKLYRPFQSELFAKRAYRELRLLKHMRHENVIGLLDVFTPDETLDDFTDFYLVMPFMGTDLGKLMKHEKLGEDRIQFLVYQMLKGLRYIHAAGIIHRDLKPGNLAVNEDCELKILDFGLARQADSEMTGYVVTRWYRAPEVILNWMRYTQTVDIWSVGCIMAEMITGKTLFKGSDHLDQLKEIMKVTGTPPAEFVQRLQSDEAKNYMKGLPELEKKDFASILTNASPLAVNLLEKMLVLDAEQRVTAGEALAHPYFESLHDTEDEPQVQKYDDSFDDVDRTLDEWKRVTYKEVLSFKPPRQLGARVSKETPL
Experimental: as §1, §2

[11] = molecular target: T11, panel of 60 human kinases (Homo sapiens, UniProt P22607); conditions: FGFR3; 0.1 μM; 10 μM ATP; read-out: % Enzyme Activity (relative to DSMO controls)
T11 construct: purchased Reaction Biology Corp
Experimental: as §1, §2

T8 sequence (Q16539 whole entry): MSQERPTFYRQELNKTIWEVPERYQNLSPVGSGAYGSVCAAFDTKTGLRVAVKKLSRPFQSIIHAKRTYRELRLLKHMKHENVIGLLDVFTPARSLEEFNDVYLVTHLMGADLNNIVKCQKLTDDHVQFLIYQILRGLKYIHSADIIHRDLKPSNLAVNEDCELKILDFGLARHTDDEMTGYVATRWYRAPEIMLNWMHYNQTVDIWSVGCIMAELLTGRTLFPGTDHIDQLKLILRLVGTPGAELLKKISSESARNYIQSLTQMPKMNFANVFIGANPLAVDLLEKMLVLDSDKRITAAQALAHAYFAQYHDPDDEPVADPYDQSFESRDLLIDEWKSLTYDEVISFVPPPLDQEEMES
T4 sequence (O94921 whole entry): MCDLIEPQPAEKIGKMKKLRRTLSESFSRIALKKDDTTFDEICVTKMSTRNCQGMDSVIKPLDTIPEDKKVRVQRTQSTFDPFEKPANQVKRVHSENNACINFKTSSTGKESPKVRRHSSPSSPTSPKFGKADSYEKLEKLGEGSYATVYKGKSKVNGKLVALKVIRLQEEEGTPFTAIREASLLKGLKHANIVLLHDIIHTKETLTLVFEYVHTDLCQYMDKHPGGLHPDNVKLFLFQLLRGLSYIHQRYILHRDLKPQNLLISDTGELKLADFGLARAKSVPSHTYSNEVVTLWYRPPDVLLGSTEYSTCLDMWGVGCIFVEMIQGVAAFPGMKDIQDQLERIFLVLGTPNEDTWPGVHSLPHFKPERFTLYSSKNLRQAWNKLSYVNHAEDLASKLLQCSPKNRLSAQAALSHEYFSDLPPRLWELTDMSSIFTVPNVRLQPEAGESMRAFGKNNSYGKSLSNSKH
T3 sequence (P11362 22-822): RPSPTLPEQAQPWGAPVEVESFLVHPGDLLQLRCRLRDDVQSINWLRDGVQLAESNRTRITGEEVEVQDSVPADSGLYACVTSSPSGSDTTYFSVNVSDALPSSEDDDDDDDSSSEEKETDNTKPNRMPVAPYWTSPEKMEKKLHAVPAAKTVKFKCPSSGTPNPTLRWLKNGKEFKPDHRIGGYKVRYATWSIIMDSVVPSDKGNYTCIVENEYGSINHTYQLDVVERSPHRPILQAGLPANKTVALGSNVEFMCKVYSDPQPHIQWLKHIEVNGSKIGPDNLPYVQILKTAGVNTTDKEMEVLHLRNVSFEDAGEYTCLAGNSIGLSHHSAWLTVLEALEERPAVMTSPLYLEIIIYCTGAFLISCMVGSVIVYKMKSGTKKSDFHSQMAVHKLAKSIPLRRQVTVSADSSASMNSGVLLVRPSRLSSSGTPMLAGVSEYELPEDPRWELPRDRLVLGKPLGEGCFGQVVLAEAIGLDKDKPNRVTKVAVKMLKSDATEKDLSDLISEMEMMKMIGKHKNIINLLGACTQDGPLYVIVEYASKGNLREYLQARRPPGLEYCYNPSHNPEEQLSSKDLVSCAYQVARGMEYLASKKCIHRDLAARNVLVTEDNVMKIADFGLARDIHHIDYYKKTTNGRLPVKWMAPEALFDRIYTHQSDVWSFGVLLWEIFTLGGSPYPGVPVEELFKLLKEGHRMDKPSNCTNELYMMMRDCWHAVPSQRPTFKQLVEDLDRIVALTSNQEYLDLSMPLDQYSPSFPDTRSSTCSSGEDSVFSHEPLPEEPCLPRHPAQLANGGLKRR
T7 sequence (Q15759 whole entry): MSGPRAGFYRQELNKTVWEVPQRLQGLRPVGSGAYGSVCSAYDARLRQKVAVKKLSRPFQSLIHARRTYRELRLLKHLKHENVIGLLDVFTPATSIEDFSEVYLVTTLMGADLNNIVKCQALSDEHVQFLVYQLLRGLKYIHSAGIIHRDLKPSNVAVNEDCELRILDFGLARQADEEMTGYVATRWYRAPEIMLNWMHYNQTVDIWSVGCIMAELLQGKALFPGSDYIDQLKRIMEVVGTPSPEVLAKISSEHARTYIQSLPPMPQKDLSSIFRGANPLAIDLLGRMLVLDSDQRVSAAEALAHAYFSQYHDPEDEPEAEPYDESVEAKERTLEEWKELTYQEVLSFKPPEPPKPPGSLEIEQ
T9 sequence (Q16288 32-839): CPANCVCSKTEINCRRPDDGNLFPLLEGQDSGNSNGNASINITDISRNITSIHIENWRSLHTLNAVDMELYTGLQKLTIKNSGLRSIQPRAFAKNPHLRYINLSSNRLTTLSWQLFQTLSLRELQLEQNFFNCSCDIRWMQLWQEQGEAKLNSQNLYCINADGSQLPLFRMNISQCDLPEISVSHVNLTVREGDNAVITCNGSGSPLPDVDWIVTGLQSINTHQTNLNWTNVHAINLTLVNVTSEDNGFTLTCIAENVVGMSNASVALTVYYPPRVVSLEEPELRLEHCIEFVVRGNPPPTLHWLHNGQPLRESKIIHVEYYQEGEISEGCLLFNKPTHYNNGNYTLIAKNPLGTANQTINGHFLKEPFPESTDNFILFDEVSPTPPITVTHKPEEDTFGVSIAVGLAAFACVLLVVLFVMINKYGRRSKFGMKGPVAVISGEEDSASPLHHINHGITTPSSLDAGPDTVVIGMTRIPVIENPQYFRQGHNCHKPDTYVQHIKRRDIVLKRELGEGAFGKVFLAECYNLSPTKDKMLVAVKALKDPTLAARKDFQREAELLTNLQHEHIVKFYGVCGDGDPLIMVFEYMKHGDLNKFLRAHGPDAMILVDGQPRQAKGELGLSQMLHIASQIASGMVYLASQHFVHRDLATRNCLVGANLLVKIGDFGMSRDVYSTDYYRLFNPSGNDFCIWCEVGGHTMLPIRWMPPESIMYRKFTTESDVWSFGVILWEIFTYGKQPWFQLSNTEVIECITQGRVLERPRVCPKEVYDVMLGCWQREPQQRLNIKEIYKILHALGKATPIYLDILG
T11 sequence (P22607 23-806): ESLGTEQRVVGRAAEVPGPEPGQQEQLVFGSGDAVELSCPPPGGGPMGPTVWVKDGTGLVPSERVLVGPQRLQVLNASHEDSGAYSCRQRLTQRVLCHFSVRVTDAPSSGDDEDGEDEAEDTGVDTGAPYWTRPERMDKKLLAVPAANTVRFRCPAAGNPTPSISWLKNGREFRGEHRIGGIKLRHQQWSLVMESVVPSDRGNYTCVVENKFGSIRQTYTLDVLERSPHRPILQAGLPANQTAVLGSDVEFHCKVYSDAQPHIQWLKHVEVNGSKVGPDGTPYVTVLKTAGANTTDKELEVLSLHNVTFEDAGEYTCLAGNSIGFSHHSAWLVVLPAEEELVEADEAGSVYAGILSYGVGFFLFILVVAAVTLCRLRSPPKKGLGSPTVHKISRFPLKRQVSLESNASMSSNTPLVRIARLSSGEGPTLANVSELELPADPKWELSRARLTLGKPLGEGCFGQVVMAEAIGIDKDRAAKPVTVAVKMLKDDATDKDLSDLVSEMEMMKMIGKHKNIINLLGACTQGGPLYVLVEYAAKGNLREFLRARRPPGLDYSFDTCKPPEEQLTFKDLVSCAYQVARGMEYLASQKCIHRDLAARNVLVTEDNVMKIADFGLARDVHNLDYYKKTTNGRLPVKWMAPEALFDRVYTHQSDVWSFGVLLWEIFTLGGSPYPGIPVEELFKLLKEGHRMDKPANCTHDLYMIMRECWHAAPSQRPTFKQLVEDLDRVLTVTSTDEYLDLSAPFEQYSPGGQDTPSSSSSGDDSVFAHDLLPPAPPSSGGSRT
T5 sequence (Q00526 whole entry): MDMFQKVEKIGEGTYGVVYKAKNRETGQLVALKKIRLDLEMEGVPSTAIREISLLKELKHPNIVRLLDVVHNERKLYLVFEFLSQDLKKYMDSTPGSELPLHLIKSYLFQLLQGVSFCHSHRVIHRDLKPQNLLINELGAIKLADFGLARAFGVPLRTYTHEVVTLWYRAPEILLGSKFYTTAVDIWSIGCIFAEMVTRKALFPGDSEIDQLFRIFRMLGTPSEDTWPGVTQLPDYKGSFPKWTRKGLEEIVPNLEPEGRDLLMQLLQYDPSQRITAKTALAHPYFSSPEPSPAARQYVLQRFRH
T6 sequence (P53779 whole entry): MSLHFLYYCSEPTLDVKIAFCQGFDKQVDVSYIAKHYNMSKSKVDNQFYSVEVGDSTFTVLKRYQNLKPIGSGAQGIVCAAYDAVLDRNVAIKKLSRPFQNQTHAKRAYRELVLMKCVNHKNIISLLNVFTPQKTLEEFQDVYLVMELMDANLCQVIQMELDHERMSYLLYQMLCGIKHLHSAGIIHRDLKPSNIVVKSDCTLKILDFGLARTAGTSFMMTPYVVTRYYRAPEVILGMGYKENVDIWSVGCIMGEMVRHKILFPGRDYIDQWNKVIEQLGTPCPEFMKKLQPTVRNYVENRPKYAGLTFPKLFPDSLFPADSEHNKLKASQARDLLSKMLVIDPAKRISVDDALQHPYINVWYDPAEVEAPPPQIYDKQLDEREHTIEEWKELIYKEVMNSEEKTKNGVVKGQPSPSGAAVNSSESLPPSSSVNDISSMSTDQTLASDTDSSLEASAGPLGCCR

| SMILES | remaining activity at 0.1 µM [1] | remaining activity at 0.1 µM [2] | remaining activity at 0.1 µM [3] | remaining activity at 0.1 µM [4] | remaining activity at 0.1 µM [5] | remaining activity at 0.1 µM [6] | remaining activity at 0.1 µM [7] | remaining activity at 0.1 µM [8] | remaining activity at 0.1 µM [9] | remaining activity at 0.1 µM [10] | remaining activity at 0.1 µM [11] |
| --- | --- | --- | --- | --- | --- | --- | --- | --- | --- | --- | --- |
| CN1CCN(Cc2ccc(-c3cnc4[nH]cc(-c5ccc6[nH]ccc6c5)c4c3)cc2)CC1 [Compound 1, 3-(1H-Indol-5-yl)-5-(4-((4-methylpiperazin-1-yl)methyl)phenyl)-1H-pyrrolo[2,3-b]pyridine, reference compound] | 16.1% | 112% | 82.7% | 88.2% | 89.1% | 122% | 104% | 108% | 6.69% | 99.3% | 43.5% |
| CN1CCN(Cc2ccc(-c3cnc4[nH]cc(-c5cccc(Cl)c5)c4c3)cc2)CC1 [Compound 7ad, 3-(3-Chlorophenyl)-5-(4-((4-methylpiperazin-1-yl)methyl)phenyl)-1H-pyrrolo[2,3-b]pyridine] | 17.5% | 119% | 98.2% | 92.5% | 95.5% | 106% | 103% | 105% | 51.2% | 108% | 70.1% |
| CN1CCN(Cc2ccc(-c3cnc4[nH]cc(-c5cnn(Cc6ccccc6)c5)c4c3)cc2)CC1 [Compound 7ah, 3-(1-Benzyl-1H-pyrazol-4-yl)-5-(4-((4-methylpiperazin-1-yl)methyl)phenyl)-1H-pyrrolo[2,3-b]pyridine] | 7.09% | 109% | 91.4% | 30.1% | 65.2% | 81.8% | 101% | 109% | 9.83% | 106% | 76.6% |
| Cc1nn(C)c(C)c1-c1c[nH]c2ncc(-c3ccc(CN4CCN(C)CC4)cc3)cc12 [Compound 7ai, 5-(4-((4-Methylpiperazin-1-yl)methyl)phenyl)-3-(1,3,5-trimethyl-1H-pyrazol-4-yl)-1H-pyrrolo[2,3-b]pyridine] | 19.2% | 106% | 97.5% | 83.9% | 96% | 107% | 104% | 98.2% | 13.1% | 106% | 82% |
| CN1CCN(Cc2ccc(-c3cnc4[nH]cc(-c5ccccc5Cl)c4c3)cc2)CC1 [Compound 7as, 3-(2-Chlorophenyl)-5-(4-((4-methylpiperazin-1-yl)methyl)phenyl)-1H-pyrrolo[2,3-b]pyridine] | 18.8% | 113% | 77.9% | 85% | 85.5% | 111% | 99.5% | 113% | 6.32% | 109% | 42.3% |
| COc1ccccc1-c1c[nH]c2ncc(-c3ccc(CN4CCN(C)CC4)cc3)cc12 [Compound 7at, 3-(2-Methoxyphenyl)-5-(4-((4-methylpiperazin-1-yl)methyl)phenyl)-1H-pyrrolo[2,3-b]pyridine] | 50.2% | 104% | 96.4% | 76.4% | 72.7% | 104% | 97.7% | 96.2% | 34.8% | 103% | 82.1% |
| CN1CCN(Cc2ccc(-c3cnc4[nH]cc(-c5ccc6c(c5)OCCO6)c4c3)cc2)CC1 [Compound 7d, 3-(2,3-Dihydrobenzo[b][1,4]dioxin-6-yl)-5-(4-((4-methylpiperazin-1-yl)methyl)phenyl)-1H-pyrrolo[2,3-b]pyridine] | 6.42% | 98.6% | 93.2% | 66.3% | 76.7% | 120% | 101% | 102% | 17.7% | 108% | 73.4% |
| CN1CCN(Cc2ccc(-c3cnc4[nH]cc(-c5ccncc5)c4c3)cc2)CC1 [Compound 7n, 5-(4-((4-Methylpiperazin-1-yl)methyl)phenyl)-3-(pyridin-4-yl)-1H-pyrrolo[2,3-b]pyridine] | 42.3% | 105% | 100% | 35% | 72.3% | 115% | 101% | 101% | 25.4% | 114% | 85.9% |
